Parameters in all cases: species or system human
Test [1] deals with circular strips of implanted engineered sphincter and gut segments. In words: Real time force generation of circular strips of harvested sphincters and gut tissues.
A further test concerns circular strips of hTEB. Briefly: Organ bath studies of hTEB circular strips following omentum implantation.
Test [2] deals with sphincter and rectal cuff cross sections. Briefly: Physiological studies on cross sections of harvested sphincter and rectal cuff.

Consider three compounds from patent publication US10828143B2, “Tissue-engineered bowel constructs” (Wake Forest University Health Sciences, priority 2015, dated 2020).

“Also recorded” adds a separate entry of the source.

As for `COC(=O)[C@@H](N)CCCNC(=N)N[N+](=O)[O-].Cl` [LNAME, Nω-Nitro-L-arginine methyl ester hydrochloride], the “EFS-induced relaxation after LNAME pre-treatment” value in test [1] (gut segments, without LNAME −355±8 μN, in µN) is −223±29; in test [1] (sphincters, without LNAME −294±26 μN) it was −140±6 μN. Besides, the “effect on magnitude of EFS-induced relaxation” value in test [1] (pre-incubation of implants with LNAME) was “significantly reduced”. Further, in the test with circular strips of hTEB (pretreatment with LNAME), the “inhibition of EFS-induced relaxation” value is on record as 50%.

For the compound `NC1=N[C@H](O)[C@H]2[C@H]3O[C@]4(O)O[C@@H]([C@@H](O)[C@@]2(N1)[C@@H]4O)[C@]3(O)CO` [TTX, tetrodotoxin], in test [2], the “effect on Ach-induced contraction” value is listed as “significantly attenuated”, the “effect on EFS-induced relaxation” value is given as “completely inhibited” and the “effect on VIP-induced relaxation” value is “significantly diminished”. Further, the “effect on EFS-induced relaxation” value in test [1] is “completely abolished”. The “effect on EFS-induced relaxation” value with circular strips of hTEB is given as “abolished”.

Consider `CN1[C@@H]2CC[C@H]1C[C@@H](OC(=O)C(CO)c1ccccc1)C2` (stereo partly shown) [atropine], for which, in the test on circular strips of hTEB, the “effect on ACh-induced contraction” value was “did not cause a contraction; also recorded: inhibited”.
